US10988477B2 (Merck Patent GmbH, priority 2018, dated 2021)

Tests used:
[1] = molecular target: GCN2 kinase (Homo sapiens, UniProt Q9P2K8); assay: GCN2 enzyme inhibition assay (Transcreener ADP2 fluorescence polarization); type: biochemical; conditions: 280 μM ATP
How it was run: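 Human GCN2 (4 nM) preincubated 10 min with compound (0–8 μM) and 200 μM (RS)7 peptide in Tris-HCl pH 7.5, NaCl, MgCl2, DTT. Reaction started with 280 μM ATP, run 1 h at 25 °C. ADP detected by Transcreener fluorescence polarization. IC50 and Ki(app) fitted by tight-binding algorithm.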

[2] = molecular target: intracellular GCN2 (phosphorylation of the GCN2 substrate eIF2α) (Homo sapiens, UniProt Q9P2K8); assay: GCN2 cellular inhibition assay (AlphaScreen SureFire P-eIF2α Ser51, borrelidin-treated U2OS cells); type: cell-based; conditions: biomarker assay, phosphorylated eIF2α Ser51 in borrelidin-treated U2OS cells
Sequence of intracellular GCN2 (phosphorylation of the GCN2 substrate eIF2α) (Q9P2K8 whole entry): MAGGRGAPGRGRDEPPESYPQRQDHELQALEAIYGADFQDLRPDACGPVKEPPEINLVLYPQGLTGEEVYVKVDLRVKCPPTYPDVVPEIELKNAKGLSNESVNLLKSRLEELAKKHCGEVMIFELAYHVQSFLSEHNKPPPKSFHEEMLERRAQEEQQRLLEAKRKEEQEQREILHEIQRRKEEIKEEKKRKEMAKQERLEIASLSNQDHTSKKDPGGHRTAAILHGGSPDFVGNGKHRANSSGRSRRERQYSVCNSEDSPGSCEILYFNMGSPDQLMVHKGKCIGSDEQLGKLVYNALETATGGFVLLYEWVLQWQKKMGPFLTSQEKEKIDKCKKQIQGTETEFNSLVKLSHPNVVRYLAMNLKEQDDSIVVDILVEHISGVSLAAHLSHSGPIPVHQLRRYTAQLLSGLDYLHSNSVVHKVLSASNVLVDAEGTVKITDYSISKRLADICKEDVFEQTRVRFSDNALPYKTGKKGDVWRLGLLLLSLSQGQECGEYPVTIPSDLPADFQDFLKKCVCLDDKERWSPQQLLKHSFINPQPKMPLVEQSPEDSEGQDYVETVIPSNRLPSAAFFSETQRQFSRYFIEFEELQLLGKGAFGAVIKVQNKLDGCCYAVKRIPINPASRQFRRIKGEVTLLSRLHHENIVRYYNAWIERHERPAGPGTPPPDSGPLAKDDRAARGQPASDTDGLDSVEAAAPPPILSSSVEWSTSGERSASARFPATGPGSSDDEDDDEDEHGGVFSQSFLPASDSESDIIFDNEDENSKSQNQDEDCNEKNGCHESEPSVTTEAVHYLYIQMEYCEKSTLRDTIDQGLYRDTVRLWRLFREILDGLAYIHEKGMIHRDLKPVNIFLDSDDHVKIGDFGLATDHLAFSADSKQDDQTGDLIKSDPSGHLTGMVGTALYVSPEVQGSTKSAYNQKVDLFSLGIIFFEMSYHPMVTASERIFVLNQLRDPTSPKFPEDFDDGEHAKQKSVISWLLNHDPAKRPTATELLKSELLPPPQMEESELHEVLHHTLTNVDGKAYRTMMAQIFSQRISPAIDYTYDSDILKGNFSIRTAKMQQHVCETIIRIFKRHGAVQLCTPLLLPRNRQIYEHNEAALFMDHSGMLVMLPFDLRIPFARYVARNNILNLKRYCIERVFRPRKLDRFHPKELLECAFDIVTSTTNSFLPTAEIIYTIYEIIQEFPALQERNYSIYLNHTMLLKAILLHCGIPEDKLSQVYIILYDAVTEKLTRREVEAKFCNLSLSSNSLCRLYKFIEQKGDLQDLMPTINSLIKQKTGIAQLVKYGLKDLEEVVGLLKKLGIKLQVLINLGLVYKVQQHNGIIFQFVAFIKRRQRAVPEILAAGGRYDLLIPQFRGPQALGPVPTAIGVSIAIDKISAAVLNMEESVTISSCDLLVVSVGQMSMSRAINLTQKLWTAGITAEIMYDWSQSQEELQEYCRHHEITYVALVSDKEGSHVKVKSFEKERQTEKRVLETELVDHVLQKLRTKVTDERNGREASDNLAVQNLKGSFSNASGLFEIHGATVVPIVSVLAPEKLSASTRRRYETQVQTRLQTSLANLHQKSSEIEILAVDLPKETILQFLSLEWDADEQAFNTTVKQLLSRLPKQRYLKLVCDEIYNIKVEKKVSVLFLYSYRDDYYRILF
How it was run: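 U2OS cells adhered overnight, then treated with compounds (4-fold serial dilutions from 40 μM final) plus borrelidin 10 μM final for 1 h at 37 °C. Lysate eIF2α Ser51 phosphorylation measured by AlphaScreen SureFire. Percent inhibition calculated relative to borrelidin-only wells.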

[3] = compounds of Formula II, 4 nM GCN2 kinase
[4] = Enzyme activity for compounds of Formula IV, Ki(app), 25° C.

Sequence of GCN2 kinase (Q9P2K8 whole entry): as above

SMILES	Ki [1, 3] [nM]	IC50 ([2]; compounds of Formula II) [nM]	IC50 ([2]; compounds of Formula IV) [nM]	other results
CC1C(NS(C)(=O)=O)CCCN1c1cc(-c2cnc3ccc(C(F)F)nn23)ncn1 (single isomer, unassigned) [II-377, N-[1-[6-[6-(Difluoromethyl)imidazo[1,2-b]pyridazin-3-yl]pyrimidin-4-yl]-2-methyl-3-piperidyl]methanesulfonamide]	10 to 1000	< 500	–	–
CC1C(CNS(C)(=O)=O)CCCN1c1cc(-c2cnc3ccc(C(F)F)nn23)ncn1 (single isomer, unassigned) [II-265, N-((1-(6-(6-(Difluoromethyl)imidazo[1,2-b]pyridazin-3-yl)pyrimidin-4-yl)-2-methylpiperidin-3-yl)methyl)methanesulfonamide]	10 to 1000	> 5000	–	–
CC1CN(c2cc(-c3cnc4ccc(C(F)F)nn34)ncn2)CC(CNS(C)(=O)=O)C1(F)F (centres unmarked) [II-45, N-((1-(6-(6-(Difluoromethyl)imidazo[1,2-b]pyridazin-3-yl)pyrimidin-4-yl)-4,4-difluoro-5-methylpiperidin-3-yl)methyl)methanesulfonamide]	< 10	< 500	–	–
CC1CCC(CNS(C)(=O)=O)CN1c1cc(-c2cnc3ccc(C(F)F)nn23)ncn1 (centres unmarked) [II-248, N-((1-(6-(6-(Difluoromethyl)imidazo[1,2-b]pyridazin-3-yl)pyrimidin-4-yl)-6-methylpiperidin-3-yl)methyl)methanesulfonamide]	10 to 1000	500 to 5000	–	–
NS(=O)(=O)NCC1CCN(c2cc(-c3cnc4ccc(C(F)F)nn34)ncn2)C1 (centres unmarked) [II-415, 1-((1-(6-(6-(Difluoromethyl)imidazo[1,2-b]pyridazin-3-yl)pyrimidin-4-yl)pyrrolidin-3-yl)methyl)sulfuric diamide]	10 to 1000	> 5000	–	–
CC1C(CNS(C)(=O)=O)C(F)(F)C(C)CN1c1cc(-c2cnc3ccc(C(F)F)nn23)ncn1 (centres unmarked) [II-462, N-((1-(6-(6-(Difluoromethyl)imidazo[1,2-b]pyridazin-3-yl)pyrimidin-4-yl)-4,4-difluoro-2,5-dimethylpiperidin-3-yl)methyl)methanesulfonamide]	< 10	< 500	–	–
COCC(=O)NCCC1CCCN(c2cc(-c3cnc4ccc(C(F)F)nn34)ncn2)C1 (centres unmarked) [II-209, N-(2-(1-(6-(6-(Difluoromethyl)imidazo[1,2-b]pyridazin-3-yl)pyrimidin-4-yl)piperidin-3-yl)ethyl)-2-methoxyacetamide]	10 to 1000	> 5000	–	–
CS(=O)(=O)NCC1CN(c2cc(-c3cnc4ccc(C(F)F)nn34)ncn2)CC(F)(F)C1 (centres unmarked) [II-258, N-((1-(6-(6-(Difluoromethyl)imidazo[1,2-b]pyridazin-3-yl)pyrimidin-4-yl)-5,5-difluoropiperidin-3-yl)methyl)methanesulfonamide]	< 10	< 500	–	–
CC1CCC(CNS(C)(=O)=O)C(C)N1c1cc(-c2cnc3ccc(C(F)F)nn23)ncn1 (centres unmarked) [II-268, N-((1-(6-(6-(Difluoromethyl)imidazo[1,2-b]pyridazin-3-yl)pyrimidin-4-yl)-2,6-dimethylpiperidin-3-yl)methyl)methanesulfonamide]	< 10	< 500	–	–
C[C@H]1CN(c2cc(-c3cnc4ccc(C(F)F)nn34)ncn2)C[C@@H](CNS(N)(=O)=O)C1(F)F [II-316, 1-(((3S,5S)-1-(6-(6-(Difluoromethyl)imidazo[1,2-b]pyridazin-3-yl)pyrimidin-4-yl)-4,4-difluoro-5-methylpiperidin-3-yl)methyl)sulfuric diamide]	< 10	< 500	–	–
Cc1[nH]ncc1[C@H]1CN(c2cc(-c3cnc4ccc(C(F)(F)F)nn34)ncn2)C[C@H](C)O1 [II-765, (2S,6S)-2-methyl-6-(5-methyl-1H-pyrazol-4-yl)-4-(6-(6-(trifluoromethyl)imidazo[1,2-b]pyridazin-3-yl)pyrimidin-4-yl)morpholine]	–	> 5000	–	IC50 [1, 3]: 10 to 1000 nM
CC1CC(N=S(C)(C)=O)CN(c2cc(-c3cnc4ccc(C(F)(F)F)nn34)ncn2)C1 (centres unmarked) [II-757, dimethyl((5-methyl-1-(6-(6-(trifluoromethyl)imidazo[1,2-b]pyridazin-3-yl)pyrimidin-4-yl)piperidin-3-yl)imino)-16-sulfanone]	–	< 500	–	IC50 [1, 3]: 10 to 1000 nM
CNc1cc(-c2cnc3ccc(C(F)F)nn23)cc(N2CC(C)C(F)(F)C(CNS(C)(=O)=O)C2)n1 (centres unmarked) [II-65, N-((1-(4-(6-(Difluoromethyl)imidazo[1,2-b]pyridazin-3-yl)-6-(methylamino)pyridin-2-yl)-4,4-difluoro-5-methylpiperidin-3-yl)methyl)methanesulfonamide]	< 10	500 to 5000	–	–
OC1CCN(CCC2CCN(c3cc(-c4cnc5ccc(C(F)F)nn45)ncn3)CC2)C1 (centres unmarked) [II-351, 1-(2-(1-(6-(6-(Difluoromethyl)imidazo[1,2-b]pyridazin-3-yl)pyrimidin-4-yl)piperidin-4-yl)ethyl)pyrrolidin-3-ol]	10 to 1000	> 5000	–	–
CC1C(CNS(C)(=O)=O)N(CC2CC2)CCN1c1cc(-c2cnc3ccc(C(F)F)nn23)ncn1 (centres unmarked) [II-495, N-((1-(Cyclopropylmethyl)-4-(6-(6-(difluoromethyl)imidazo[1,2-b]pyridazin-3-yl)pyrimidin-4-yl)-3-methylpiperazin-2-yl)methyl)methanesulfonamide]	< 10	< 500	–	–
C[C@@H]1CC(N=S(C)(C)=O)CN(c2cc(-c3cnc4ccc(C(F)F)nn34)ncn2)C1 (single isomer, unassigned) [II-541]	< 10	< 500	–	–
CC(C)(NS(C)(=O)=O)C1CCCN(c2cc(-c3cnc4ccc(C(F)F)nn34)ccn2)C1 (centres unmarked) [II-114, N-(2-(1-(4-(6-(Difluoromethyl)imidazo[1,2-b]pyridazin-3-yl)pyridin-2-yl)piperidin-3-yl)propan-2-yl)methanesulfonamide]	10 to 1000	> 5000	–	–
CC1(O)CC(CNS(C)(=O)=O)CN(c2cc(-c3cnc4ccc(C(F)F)nn34)ncn2)C1 (single isomer, unassigned) [II-5, N-((1-(6-(6-(Difluoromethyl)imidazo[1,2-b]pyridazin-3-yl)pyrimidin-4-yl)-5-hydroxy-5-methylpiperidin-3-yl)methyl)methanesulfonamide]	10 to 1000	> 5000	–	–
CC1CC(C(N)=O)C(C)N(c2cc(-c3cnc4ccc(C(F)(F)F)nn34)ncn2)C1 (racemic) [II-719, 2,5-Dimethyl-1-[6-[6-(trifluoromethyl)imidazo[1,2-b]pyridazin-3-yl]pyrimidin-4-yl]piperidine-3-carboxamide]	10 to 1000	500 to 5000	–	–

Now from value to compound, other results behind:

Ki [1, 3] [nM]	IC50 ([2]; compounds of Formula II) [nM]	IC50 ([2]; compounds of Formula IV) [nM]	SMILES	other results
–	–	500 to 5000	CC1CN(c2ncc(F)c(-c3cnc4cnc(C(F)(F)F)cn34)n2)C(C)C(c2cn[nH]c2)N1 (centres unmarked) [IV-421, 3-(2-(2,5-Dimethyl-3-(1H-pyrazol-4-yl)piperazin-1-yl)-5-fluoropyrimidin-4-yl)-6-(trifluoromethyl)imidazo[1,2-a]pyrazine]	Ki [1, 4]: 10 to 100 nM
–	–	< 500	CC1CN(c2ccnc(-c3cnc4cnc(C(F)(F)F)cn34)n2)C(C)C(c2cn[nH]c2)O1 (centres unmarked) [IV-415, 3,6-Dimethyl-2-(1H-pyrazol-4-yl)-4-(2-(6-(trifluoromethyl)imidazo[1,2-a]pyrazin-3-yl)pyrimidin-4-yl)morpholine]	Ki [1, 4]: < 10 nM
–	–	> 5000	O=C1CN(c2ccnc(-c3cnc4cnc(C(F)(F)F)cn34)n2)CC(c2cn[nH]c2)N1 (centres unmarked) [IV-410, 6-(1H-Pyrazol-4-yl)-4-(2-(6-(trifluoromethyl)imidazo[1,2-a]pyrazin-3-yl)pyrimidin-4-yl)piperazin-2-one]	Ki [1, 4]: 10 to 100 nM
–	–	< 500	CC(=O)N1CCN(c2cccc(-c3cnc4cnc(C(N)=O)cn34)n2)CC1 [IV-184, 3-(6-(4-Acetylpiperazin-1-yl)pyridin-2-yl)imidazo[1,2-a]pyrazine-6-carboxamide]	Ki [1, 4]: 10 to 100 nM
–	–	< 500	CC1C(c2cn[nH]c2)NCCN1c1ccnc(-c2cnc3cnc(Br)cn23)n1 (single isomer, unassigned) [IV-414, 6-Bromo-3-(4-(2-methyl-3-(1H-pyrazol-4-yl)piperazin-1-yl)pyrimidin-2-yl)imidazo[1,2-a]pyrazine]	Ki [1, 4]: < 10 nM
–	–	> 5000	OC1CCCN(c2ccnc(-c3cnc4cnc(C(F)(F)F)cn34)n2)CC1 (centres unmarked) [IV-447, 1-(2-(6-(Trifluoromethyl)imidazo[1,2-a]pyrazin-3-yl)pyrimidin-4-yl)azepan-4-ol]	Ki [1, 4]: 100 to 1000 nM
–	–	< 500	C[C@@H]1C[C@H](c2c[nH]nc2F)CN(c2nccc(-c3cnc4cnc(C(F)(F)F)cn34)n2)C1 [IV-757, 3-(2-((3R,5R)-3-(3-fluoro-1H-pyrazol-4-yl)-5-methylpiperidin-1-yl)pyrimidin-4-yl)-6-(trifluoromethyl)imidazo[1,2-a]pyrazine]	IC50 ([1]; compounds of Formula IV, 4 nM GCN2 kinase): 10 to 1000 nM
–	–	500 to 5000	CC1CC(C(N)=O)C(C)N(c2ccnc(-c3cnc4cnc(C(F)(F)F)cn34)n2)C1 (single isomer, unassigned) [IV-501, 2,5-Dimethyl-1-(2-(6-(trifluoromethyl)imidazo[1,2-a]pyrazin-3-yl)pyrimidin-4-yl)piperidine-3-carboxamide]	Ki [1, 4]: < 10 nM
–	–	> 5000	O=C1CCN(c2ccnc(-c3cnc4cnc(C(F)F)cn34)n2)CCN1 [IV-49, 1-(2-(6-(Difluoromethyl)imidazo[1,2-a]pyrazin-3-yl)pyrimidin-4-yl)-1,4-diazepan-5-one]	Ki [1, 4]: 100 to 1000 nM
